Measured values reported in patent US9730889B2, “Steroid-sparing effects of beta-adrenergic inverse agonists and uses thereof” (University of Houston System, priority 2011, dated 2017).
Read-outs that look alike come from different tables or passages of the source.

Legend:
BAL eosinophils = assay: BAL eosinophil numbers in OVA sensitized and challenged mice; assay type: in vivo, BALB/c mice
From the text: (§1) Six-week to eight-week-old BALB/c mice (Jackson Animal Laboratory, Bar Harbor, Me.) were housed under specific pathogen-free conditions.
(§2) Mice were immunized against allergen by means of sensitization (once weekly intraperitoneal injection on days 0, 7, and 14) and challenge (once daily intranasal instillation for 5 days on days 41-45) with ovalbumin (OVA) as described (FIG. 1) (19).
(§3) Untreated sensitized and challenged mice or mice that had not undergone the sensitization and challenge process, received vehicle and were fed with normal mouse chow. […] Experimental mice were sacrificed on day 46.
Brochoalveolar lavage (BAL) fluid was acquired via infusion and recovery of cold PBS (2×1 ml) through the tracheal cannula from euthanized (pentobarbital 0.1 ml of 65 mg/ml) mice. Brochoalveolar lavage total leukocyte count and differentiated cell counts were performed as described (19).
Leukocytes and cytokines were measured in BAL fluid of OVA-sensitized mice 24 hours after the last of five daily nasal challenges with OVA (FIG. 1).

[1] = tested on: mucin content in the airway epithelium; assay: Airway epithelial mucin content (PAFS staining, mucin volume density) in OVA sensitized and challenged mice; assay type: in vivo, BALB/c mice; settings: for reduction in mucin content: high dose: dexamethasone 4 mg/kg/day
From the text: as §1, §2, §3
Lungs were perfused with 4% paraformaldehyde in PBS (pH 7.0) via a tracheal cannula at room temperature, then removed from the thoracic cavity and further fixed overnight at 4° C. (25). After overnight fixation, lungs were embedded in paraffin and then sectioned and stained with periodic acid fluorescent Schiff's (PAFS) reagent to examine intracellular mucin. Tissue sections were examined under a 40× objective and images (MagnaFire 2.1 Optronics) were acquired prior to any measurements and analyzed (ImagePro Plus) by blinded investigators (25).

cytokines in BAL fluid = assay: Cytokines in BAL fluid of OVA sensitized and challenged mice (multiplex ELISA); assay type: in vivo, BALB/c mice; settings: Dex 4.0 mg/kg/day, Nad 250 ppm, 24 h after last OVA challenge
From the text: as §1, §2, §3
The supernatants from brochoalveolar lavage samples, collected 24 hours after the last challenge with OVA, were provided to Pierce Searchlight, Aushon BioSystems, Inc. in blinded fashion. The concentrations of eotaxin, macrophage-derived chemokine (MDC), thymus and activation regulated chemokine (TARC), interleukin (IL)-1α, IL-5, IL-6, IL-12p70, IL-13, IL-17, IL-23, interferon (IFN), tumor necrosis factor alpha (TNF-a) and transforming growth factor beta (TGF-β1) were measured using multiplex enzyme-linked immunosorbent assay.
Definition of abbreviations in Table 1 are Th1/2/17=T helper (1, 2, or 17) type inflammation; MDC=macrophage-derived chemokine; TARC=thymus and activation regulated chemokine; IL=interleukin-1a, IL-5, IL-6, IL-12p70, IL-13, IL-17, IL-23; IFNγ=interferon gamma; TNFα=tumor necrosis factor alpha; TGFβ1=transforming growth factor betal. The percentage from No Rx is in comparison to No OVA for each cytokine, while percentage of each drug treatment group [Dex (4.0 mg/kg/day); Nad (250 ppm); and Dex+Nad (0.4 mg/kg/day+25 ppm)] is in comparison to No Rx. Values are the means±SEM of data from 4 mice in each group (n=4); and *, indicate significant difference compared to No Rx, P<0.05.

mucin content = settings: previous study (19), cited from earlier work
[2] = tested on: airway hyperresponsiveness; settings: mild asthmatics, dose escalation protocol; cited from earlier work
[3] = intermediate doses: dexamethasone 0.4 mg/kg/day IP 8 days, nadolol 25 ppm in chow 28 days, BAL 24 h after last OVA challenge
[4] = low doses: dexamethasone 0.1 mg/kg/day IP 8 days, nadolol 5 ppm in chow 28 days, BAL 24 h after last OVA challenge

Structure (SMILES)	reduction in eosinophils (BAL eosinophils; [3])	reduction in eosinophils (BAL eosinophils; [4])	reduction in mucin content ([1]; nadolol 250 ppm)	IL-1a, percentage in comparison to No Rx (cytokines in BAL fluid)	IL-5, percentage in comparison to No Rx (cytokines in BAL fluid)	IL-6, percentage in comparison to No Rx (cytokines in BAL fluid)	IL-12p70, percentage in comparison to No Rx (cytokines in BAL fluid)	IL-13, percentage in comparison to No Rx (cytokines in BAL fluid)	IL-17, percentage in comparison to No Rx (cytokines in BAL fluid)	IL-23, percentage in comparison to No Rx (cytokines in BAL fluid)	MDC, percentage in comparison to No Rx (cytokines in BAL fluid)	TARC, percentage in comparison to No Rx (cytokines in BAL fluid)	TGFβ1, percentage in comparison to No Rx (cytokines in BAL fluid)	TNFa, percentage in comparison to No Rx (cytokines in BAL fluid)	eotaxin, percentage in comparison to No Rx (cytokines in BAL fluid)	IFNg level in BAL fluid (cytokines in BAL fluid; mean ± SEM, n=4)	IL-1a level in BAL fluid (cytokines in BAL fluid; mean ± SEM, n=4)	IL-5 level in BAL fluid (cytokines in BAL fluid; mean ± SEM, n=4)	IL-6 level in BAL fluid (cytokines in BAL fluid; mean ± SEM, n=4)	IL-12p70 level in BAL fluid (cytokines in BAL fluid; mean ± SEM, n=4)	other results
C[C@@H]1C[C@H]2[C@@H]3CCC4=CC(=O)C=C[C@]4(C)[C@@]3(F)[C@@H](O)C[C@]2(C)[C@@]1(O)C(=O)CO [dexamethasone]	58%	36%	72%	(233%)*	(30%)*	(163%)	(180%)	(27%)*	(0) %	(200%)	(5%)*	(15%)*	(35%)*	(23%)*	(27%)*	90 ± 1.1 pg/mL	35 ± 7.1 pg/mL	63 ± 19.3 pg/mL	39 ± 28.2 pg/mL	9 ± 1.3 pg/mL	reduction in eosinophils (BAL eosinophils; high-dose dexamethasone 4.0 mg/kg/day IP 8 days): 89%; IFNg, percentage in comparison to No Rx (cytokines in BAL fluid): (1500%); IL-13 level in BAL fluid (cytokines in BAL fluid; mean ± SEM, n=4): 12 ± 5.0 pg/mL; IL-17 level in BAL fluid (cytokines in BAL fluid; mean ± SEM, n=4): 2 ± 0.4 pg/mL; IL-23 level in BAL fluid (cytokines in BAL fluid; mean ± SEM, n=4): 74 ± 10.0 pg/mL; MDC level in BAL fluid (cytokines in BAL fluid; mean ± SEM, n=4): 10 ± 1.0 pg/mL; TARC level in BAL fluid (cytokines in BAL fluid; mean ± SEM, n=4): 475 ± 47.0 pg/mL; TGFβ1 level in BAL fluid (cytokines in BAL fluid; mean ± SEM, n=4): 4675 ± 792 pg/mL; TNFa level in BAL fluid (cytokines in BAL fluid; mean ± SEM, n=4): 14 ± 1.0 pg/mL; eotaxin level in BAL fluid (cytokines in BAL fluid; mean ± SEM, n=4): 12 ± 2.0 pg/mL
CC(C)(C)NCC(O)COc1cccc2c1CC(O)C(O)C2 (stereo not shown) [nadolol]	36%	20%	86%	(73%)	(56%)*	(88%)	(140%)	(13%)*	(50%)	(76%)	(27%)*	(19%)*	(45%)*	(53%)*	(80%)	7 ± 1.1 pg/mL	11 ± 5.0 pg/mL	118 ± 33.0 pg/mL	21 ± 10.0 pg/mL	7 ± 1.0 pg/mL	maximal reductions in airway eosinophilia from OVA S/C (BAL eosinophils; nadolol 250 ppm, detected at day 7 of treatment): ~50%; change in mucin content ([1]; all doses of chronic nadolol (5, 25, 250 ppm)): significant decreases; mucin volume density after 7 days of treatment vs vehicle treated control mice ([1]; nadolol 250 ppm, 7 days): significant reductions; day at which maximal effect on mucin volume density is achieved ([1]; nadolol 250 ppm, time course): 22 days; IL-13 level in BAL fluid (cytokines in BAL fluid; mean ± SEM, n=4): 6 ± 2.0 pg/mL; IL-17 level in BAL fluid (cytokines in BAL fluid; mean ± SEM, n=4): 1 ± 0.2 pg/mL; IL-23 level in BAL fluid (cytokines in BAL fluid; mean ± SEM, n=4): 28 ± 4.3 pg/mL; TARC level in BAL fluid (cytokines in BAL fluid; mean ± SEM, n=4): 593 ± 223.5 pg/mL; TGFβ1 level in BAL fluid (cytokines in BAL fluid; mean ± SEM, n=4): 5891 ± 710 pg/mL; TNFa level in BAL fluid (cytokines in BAL fluid; mean ± SEM, n=4): 33 ± 8.0 pg/mL; eotaxin level in BAL fluid (cytokines in BAL fluid; mean ± SEM, n=4): 36 ± 6.0 pg/mL; reduction in mucin content (mucin content; 7 days of treatment with nadolol): very modest reduction; reduction in mucin content (mucin content; 28 days of treatment with nadolol): ~90%; airway hyperresponsiveness [2]: reduction in airway hyperresponsiveness
